From patent US9890166B2, “Imidazopyrrolidine derivatives and their use in the treatment of disease” (NOVARTIS AG, priority 2013, dated 2018) come the findings set out here.

One experiment deals with BRD4 (His-Brd4(44-477)) (Homo sapiens (Human), UniProt O60885). Put plainly: TR-FRET in-vitro binding assay for BRD4. Conditions: single determination or n ≧ 2 independent determinations, read-out: Biochemical IC50 BRD4. In a few lines:
(§1)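 Compounds were serially diluted over eight concentrations and added to wells. TR-FRET signal was then measured.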

Another experiment deals with BRD2 (His-Brd2(60-472)) (Homo sapiens (Human), UniProt P25440). Briefly: TR-FRET in-vitro binding assay for BRD2. Particulars: single determination or n ≧ 2 independent determinations, read-out: Biochemical IC50 BRD2. In a few lines: as §1
For orientation: In TR-FRET formats the signal depends on donor and acceptor labels being close together.

For the next experiment, the target named is BRD3 (His-Brd3(20-477)) (Homo sapiens (Human), UniProt Q15059). Put plainly: TR-FRET in-vitro binding assay for BRD3. Conditions: single determination or n ≧ 2 independent determinations, read-out: Biochemical IC50 BRD3. The method, boiled down: as §1
In experiment [1] the target is CREBBP bromodomain (His-CREBBP(1081-1197)) (Homo sapiens (Human), UniProt Q92793). Put plainly: AlphaScreen in-vitro binding assay for CREBBP. Particulars: single determination or n ≧ 2 independent determinations, read-out: Biochemical IC50 CREBBP. In a few lines:
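Reactions at 30 °C for 35 min, then Ni-chelate acceptor and streptavidin donor beads in HEPES pH 7.5, NaCl, Tween20, BSA, 60 min at room temperature. Eight-point compound series; IC50 by non-linear regression of percent inhibition.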
In general terms: In Alpha technology, singlet oxygen from a donor bead excites a nearby acceptor bead.

A further experiment relates to THP-1 cells. Put plainly: Cell growth inhibition assay (CellTiter-Glo), THP-1.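 As to all read-outs here: viability read as cellular ATP luminescence after 4 days, 3-fold dilution series from 10 µM, DMSO vehicle-treated cells taken as 100%, cell-free medium wells as −100%.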 Particulars: for GI50: Homo sapiens, THP-1, read-out: THP-1 GI50; for THP-1 TGI: THP-1 cells, total growth inhibition, CellTiter-Glo. In general terms: ATP-based viability assays read luminescence as a measure of living cells.
The test system of another experiment is K-562 cells. Briefly: Cell growth inhibition assay (CellTiter-Glo), K-562.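 As to all read-outs here: cellular ATP measured by luminescence after 4 days of exposure, 3-fold dilution series from 10 µM, DMSO vehicle-treated cells define 100%, cell-free medium wells −100%.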 Particulars: for GI50: Homo sapiens, K562, read-out: K-562 GI50; for K-562 TGI: K-562 cells, total growth inhibition, CellTiter-Glo.
For another experiment, the system named is MV-4-11 cells. Put plainly: Cell growth inhibition assay (CellTiter-Glo), MV-4-11.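 As to all read-outs here: cellular ATP luminescence after 4 days, 3-fold dilution series from 10 µM top dose, vehicle (0.1% DMSO) set to 100%, cell-free medium set to −100%, day 0 corrected.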 Particulars: for GI50: Homo sapiens, MV4-11, read-out: MV-4-11 GI50; for MV-4-11 TGI: MV-4-11 cells, total growth inhibition, CellTiter-Glo.

BRD3 (His-Brd3(20-477)), sequence (Q15059 20-477): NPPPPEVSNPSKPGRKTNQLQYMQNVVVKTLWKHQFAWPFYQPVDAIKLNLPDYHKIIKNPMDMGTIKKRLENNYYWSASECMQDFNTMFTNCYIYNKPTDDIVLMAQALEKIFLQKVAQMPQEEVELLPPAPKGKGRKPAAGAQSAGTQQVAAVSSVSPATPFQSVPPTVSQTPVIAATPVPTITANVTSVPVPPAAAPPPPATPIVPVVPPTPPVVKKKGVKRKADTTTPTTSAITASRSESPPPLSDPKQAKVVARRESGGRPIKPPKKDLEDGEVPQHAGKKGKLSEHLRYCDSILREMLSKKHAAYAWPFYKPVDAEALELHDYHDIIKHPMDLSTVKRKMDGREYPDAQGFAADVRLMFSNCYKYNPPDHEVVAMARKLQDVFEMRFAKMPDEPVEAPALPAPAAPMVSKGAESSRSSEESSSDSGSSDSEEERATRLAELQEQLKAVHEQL
BRD2 (His-Brd2(60-472)), sequence (P25440 60-472): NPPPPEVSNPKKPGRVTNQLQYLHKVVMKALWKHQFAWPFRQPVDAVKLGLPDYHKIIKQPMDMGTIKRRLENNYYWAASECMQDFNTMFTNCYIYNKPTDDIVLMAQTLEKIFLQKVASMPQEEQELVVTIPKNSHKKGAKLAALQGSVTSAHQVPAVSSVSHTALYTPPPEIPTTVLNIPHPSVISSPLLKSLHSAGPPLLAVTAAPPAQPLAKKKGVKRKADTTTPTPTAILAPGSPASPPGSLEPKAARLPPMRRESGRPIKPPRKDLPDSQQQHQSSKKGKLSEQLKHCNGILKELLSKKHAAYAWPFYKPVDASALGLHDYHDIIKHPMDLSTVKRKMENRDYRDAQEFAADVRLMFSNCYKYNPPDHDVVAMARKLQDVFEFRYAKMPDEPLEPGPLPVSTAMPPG
CREBBP bromodomain (His-CREBBP(1081-1197)), sequence (Q92793 1081-1197): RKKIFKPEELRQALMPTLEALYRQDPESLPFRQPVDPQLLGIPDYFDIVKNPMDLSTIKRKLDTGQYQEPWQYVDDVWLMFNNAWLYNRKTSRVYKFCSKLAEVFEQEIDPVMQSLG

As for `COc1ncccc1-c1nc2c([nH]1)C(c1ccc(Cl)cc1)N(c1cc(C)c3nnn(C)c3c1)C2=O` (stereo not drawn) [Example 133, 6-(4-chlorophenyl)-5-(3,7-dimethyl-3H-benzo[d][1,2,3]triazol-5-yl)-2-(2-methoxypyridin-3-yl)-5,6-dihydropyrrolo[3,4-d]imidazol-4(1H)-one], the IC50 at BRD4 (His-Brd4(44-477)) was 0.023 µM; on BRD2 (His-Brd2(60-472)), 0.035 µM; on BRD3 (His-Brd3(20-477)) it was 0.0195 µM; in experiment [1] it was 5.4 µM. The GI50 was determined as 0.0656 µM with THP-1 cells, 0.142 µM in the experiment on K-562 cells and 0.0351 µM with MV-4-11 cells. The “THP-1 TGI” value in the experiment with THP-1 cells came to 0.1375 µM. For the same compound, in the experiment with K-562 cells, the “K-562 TGI” value was >10 µM. In addition, in the experiment with MV-4-11 cells, the “MV-4-11 TGI” value came out at 0.0608 µM.

In the case of `Cc1cc(N2C(=O)c3nc(C4=CCOCC4)[nH]c3C2c2ccc(Cl)cc2)cn(C)c1=O` (stereo not drawn) [Example 134, 6-(4-chlorophenyl)-2-(3,6-dihydro-2H-pyran-4-yl)-5-(1,5-dimethyl-6-oxo-1,6-dihydropyridin-3-yl)-5,6-dihydropyrrolo[3,4-d]imidazol-4(1H)-one], the IC50 at BRD4 (His-Brd4(44-477)) amounted to 0.038 µM; on BRD2 (His-Brd2(60-472)), 0.08 µM; at BRD3 (His-Brd3(20-477)) it was 0.035 µM; in experiment [1], 1.68 µM. Moreover, the values for the GI50 in the experiment with THP-1 cells, in the experiment with K-562 cells and in the experiment with MV-4-11 cells were 0.12 µM, 0.61 µM and 0.0724 µM, respectively. Moreover, the “THP-1 TGI” value with THP-1 cells turned out to be 0.399 µM. The “K-562 TGI” value in the experiment with K-562 cells was >10 µM. Also, the “MV-4-11 TGI” value in the experiment with MV-4-11 cells is 0.141 µM.

Turning to `Cc1cc(N2C(=O)c3nc(C4=CCN(C)CC4)[nH]c3C2c2ccc(Cl)cc2)cn(C)c1=O` (stereo not drawn) [Example 135, 6-(4-chlorophenyl)-5-(1,5-dimethyl-6-oxo-1,6-dihydropyridin-3-yl)-2-(1-methyl-1,2,3,6-tetrahydropyridin-4-yl)-5,6-dihydropyrrolo[3,4-d]imidazol-4(1H)-one], the IC50 came out at 0.031 µM on BRD4 (His-Brd4(44-477)), 0.053 µM at BRD2 (His-Brd2(60-472)), 0.037 µM at BRD3 (His-Brd3(20-477)) and 3.85 µM in experiment [1]. Besides, the GI50 in the experiment on THP-1 cells is 0.265 µM; with K-562 cells, 0.806 µM; with MV-4-11 cells, 0.0649 µM. Besides, the “THP-1 TGI” value in the experiment on THP-1 cells came to 0.964 µM. In the experiment on K-562 cells, the “K-562 TGI” value is >10 µM. For the same compound, the “MV-4-11 TGI” value with MV-4-11 cells came to 0.1115 µM.

As to `COc1ccc(-c2nc3c(n2C(C)C)C(c2ccc(Cl)cc2)N(c2cc(C)c4nnn(C)c4n2)C3=O)cn1` (stereo not drawn) [Example 138, 6-(4-chlorophenyl)-5-(3,7-dimethyl-3H-[1,2,3]triazolo[4,5-b]pyridin-5-yl)-1-isopropyl-2-(6-methoxypyridin-3-yl)-5,6-dihydropyrrolo[3,4-d]imidazol-4(1H)-one], the IC50 is 0.011 µM on BRD4 (His-Brd4(44-477)), 0.026 µM at BRD2 (His-Brd2(60-472)), 0.011 µM at BRD3 (His-Brd3(20-477)) and > 37 µM in experiment [1]. Moreover, the GI50 in the experiment on THP-1 cells turned out to be 0.00937 µM; in the experiment with K-562 cells it was 0.0372 µM; in the experiment on MV-4-11 cells it was 0.00797 µM. For the same compound, the “THP-1 TGI” value in the experiment with THP-1 cells came to 0.0236 µM. Further, the “K-562 TGI” value with K-562 cells is >10 µM. Also, in the experiment with MV-4-11 cells, the “MV-4-11 TGI” value stood at 0.013 µM.

In the case of `Cc1nc2c([nH]1)C(c1ccc(Cl)cc1)N(c1cc(C)c3nnc(C(F)F)n3c1)C2=O` (stereo not drawn) [Example 139, 6-(4-chlorophenyl)-5-(3-(difluoromethyl)-8-methyl-[1,2,4]triazolo[4,3-a]pyridin-6-yl)-2-methyl-5,6-dihydropyrrolo[3,4-d]imidazol-4(1H)-one], the IC50 was 0.0325 µM on BRD4 (His-Brd4(44-477)), 0.086 µM on BRD2 (His-Brd2(60-472)), 0.042 µM on BRD3 (His-Brd3(20-477)) and > 37 µM in experiment [1]. Also, the GI50 is 0.0407 µM in the experiment with THP-1 cells, 0.214 µM with K-562 cells and 0.0575 µM in the experiment with MV-4-11 cells. The “THP-1 TGI” value with THP-1 cells came to 0.1155 µM. Moreover, the “K-562 TGI” value in the experiment on K-562 cells was >10 µM. In the experiment on MV-4-11 cells, the “MV-4-11 TGI” value came to 0.0992 µM.

Turning to `COc1ncccc1-c1nc2c([nH]1)C(c1ccc(Cl)cc1)N(c1cc(C)c3nnc(C(F)F)n3c1)C2=O` (stereo not drawn) [Example 140, 6-(4-chlorophenyl)-5-(3-(difluoromethyl)-8-methyl-[1,2,4]triazolo[4,3-a]pyridin-6-yl)-2-(2-methoxypyridin-3-yl)-5,6-dihydropyrrolo[3,4-d]imidazol-4(1H)-one], the IC50 is 0.029 µM on BRD4 (His-Brd4(44-477)), 0.042 µM on BRD2 (His-Brd2(60-472)), 0.028 µM on BRD3 (His-Brd3(20-477)) and > 37 µM in experiment [1]. In addition, the GI50 came to 0.0636 µM with THP-1 cells, 0.18 µM in the experiment with K-562 cells and 0.0384 µM in the experiment with MV-4-11 cells. Further, the “THP-1 TGI” value in the experiment with THP-1 cells is 0.1245 µM. For the same compound, the “K-562 TGI” value with K-562 cells is >10 µM. Moreover, the “MV-4-11 TGI” value in the experiment on MV-4-11 cells came out at 0.0668 µM.

For `COc1ccc(-c2nc3c([nH]2)C(c2ccc(Cl)cc2)N(c2cc(C)c4nnc(C(F)F)n4c2)C3=O)cn1` (stereo not drawn) [Example 141, 6-(4-chlorophenyl)-5-(3-(difluoromethyl)-8-methyl-[1,2,4]triazolo[4,3-a]pyridin-6-yl)-2-(6-methoxypyridin-3-yl)-5,6-dihydropyrrolo[3,4-d]imidazol-4(1H)-one], the IC50 is 0.0235 µM at BRD4 (His-Brd4(44-477)), 0.047 µM at BRD2 (His-Brd2(60-472)), 0.021 µM on BRD3 (His-Brd3(20-477)) and > 37 µM in experiment [1]. Also, the GI50 was 0.077 µM in the experiment with THP-1 cells, 0.202 µM with K-562 cells and 0.0732 µM with MV-4-11 cells. Moreover, the “THP-1 TGI” value with THP-1 cells stood at 0.179 µM. Moreover, the “K-562 TGI” value in the experiment with K-562 cells was >10 µM. Moreover, the “MV-4-11 TGI” value with MV-4-11 cells amounted to 0.1115 µM.

On to `COc1ncc(-c2nc3c(n2C(C)C)C(c2ccc(Cl)cc2)N(c2cc(C)c4nnc(C(F)F)n4c2)C3=O)c(OC)n1` (stereo not drawn) [Example 143, 6-(4-chlorophenyl)-5-(3-(difluoromethyl)-8-methyl-[1,2,4]triazolo[4,3-a]pyridin-6-yl)-2-(2,4-dimethoxypyrimidin-5-yl)-1-isopropyl-5,6-dihydropyrrolo[3,4-d]imidazol-4(1H)-one], for which the IC50 on BRD4 (His-Brd4(44-477)) was 0.019 µM; at BRD2 (His-Brd2(60-472)), 0.034 µM; at BRD3 (His-Brd3(20-477)) it was 0.018 µM; in experiment [1], > 37 µM. Besides, the values for the GI50 with THP-1 cells, with K-562 cells and with MV-4-11 cells were 0.0113 µM, 0.044 µM and 0.00919 µM, respectively. Also, the “THP-1 TGI” value in the experiment with THP-1 cells amounted to 0.03065 µM. For the same compound, the “K-562 TGI” value with K-562 cells is >10 µM. In addition, in the experiment on MV-4-11 cells, the “MV-4-11 TGI” value is 0.0161 µM.

Regarding `COc1cc(C(F)(F)F)ccc1-c1nc2c(n1C(C)C)C(c1ccc(Cl)cc1)N(c1cc(C)c3nnc(C(F)F)n3c1)C2=O` (stereo not drawn) [Example 144, 6-(4-chlorophenyl)-5-(3-(difluoromethyl)-8-methyl-[1,2,4]triazolo[4,3-a]pyridin-6-yl)-1-isopropyl-2-(2-methoxy-4-(trifluoromethyl)phenyl)-5,6-dihydropyrrolo[3,4-d]imidazol-4(1H)-one], the IC50 is 0.023 µM at BRD4 (His-Brd4(44-477)), 0.026 µM at BRD2 (His-Brd2(60-472)), 0.022 µM on BRD3 (His-Brd3(20-477)) and > 37 µM in experiment [1]. The GI50 turned out to be 0.0462 µM with THP-1 cells, 0.116 µM with K-562 cells and 0.0308 µM with MV-4-11 cells. Moreover, in the experiment with THP-1 cells, the “THP-1 TGI” value is 0.09295 µM. Moreover, the “K-562 TGI” value in the experiment with K-562 cells is >10 µM. In addition, in the experiment with MV-4-11 cells, the “MV-4-11 TGI” value amounted to 0.0469 µM.

Usually IC50 stands for the concentration at which inhibition is half-maximal. Usually GI50 stands for the concentration at which growth is held to half of that of the control.
